Ki and Activity data for 8 molecules are collected here from ChEMBL document CHEMBL1157522 (Bioorg Med Chem Lett, 2008).

As a reminder, the Ki is the dissociation constant of the complex between target and ligand, obtained from inhibition or displacement. High values mean lower affinity, low ones higher affinity.

One test has as its target Coagulation factor X (Homo sapiens, UniProt P00742). The experiment in a line: Inhibition of human factor 10a.
For a further test, the target named is Trypsin (Homo sapiens) (UniProt P07477+P07478+P35030). The experiment in a line: Inhibition of human trypsin. It counts as protein assay.
The target in test [1] is Coagulation factor IX (Homo sapiens) (UniProt P00740). The test can be described thus: Inhibition of human factor 9a.
Sequence of Coagulation factor IX (Homo sapiens) (P00740 47-191 limits assumed): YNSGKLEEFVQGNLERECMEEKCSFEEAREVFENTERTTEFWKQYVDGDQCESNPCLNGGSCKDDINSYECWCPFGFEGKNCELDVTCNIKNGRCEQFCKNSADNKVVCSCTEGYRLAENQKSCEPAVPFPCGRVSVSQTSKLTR
Sequence of Coagulation factor IX (Homo sapiens) (P00740 227-461 limits assumed): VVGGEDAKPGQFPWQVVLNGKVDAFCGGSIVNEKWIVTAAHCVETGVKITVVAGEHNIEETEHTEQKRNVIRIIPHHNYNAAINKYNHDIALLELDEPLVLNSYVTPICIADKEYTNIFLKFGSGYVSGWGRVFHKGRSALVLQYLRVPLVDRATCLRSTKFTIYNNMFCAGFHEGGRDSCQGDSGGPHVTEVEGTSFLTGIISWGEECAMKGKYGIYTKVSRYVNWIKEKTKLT
Test [2] deals with T1, Coagulation factor VII (Homo sapiens) (UniProt P08709).
T1 sequence (whole entry): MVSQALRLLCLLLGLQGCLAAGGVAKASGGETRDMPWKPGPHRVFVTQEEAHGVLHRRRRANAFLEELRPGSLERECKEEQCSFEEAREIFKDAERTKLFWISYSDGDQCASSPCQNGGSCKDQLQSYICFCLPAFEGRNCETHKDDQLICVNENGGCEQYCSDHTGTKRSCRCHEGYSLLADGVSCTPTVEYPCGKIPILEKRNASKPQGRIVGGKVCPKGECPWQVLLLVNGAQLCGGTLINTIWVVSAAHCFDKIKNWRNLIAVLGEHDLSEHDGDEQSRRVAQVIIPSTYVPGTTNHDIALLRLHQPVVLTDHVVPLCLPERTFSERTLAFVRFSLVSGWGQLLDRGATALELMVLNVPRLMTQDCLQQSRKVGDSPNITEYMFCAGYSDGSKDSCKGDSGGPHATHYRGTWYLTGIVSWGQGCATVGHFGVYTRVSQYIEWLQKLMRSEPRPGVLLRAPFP
The test can be described thus: Inhibition of human factor 7a.

For test [3], the target named is Plasminogen (Homo sapiens) (UniProt P00747). The test can be described thus: Inhibition of human plasmin.
Sequence of Plasminogen (Homo sapiens) (P00747 97-580 limits assumed): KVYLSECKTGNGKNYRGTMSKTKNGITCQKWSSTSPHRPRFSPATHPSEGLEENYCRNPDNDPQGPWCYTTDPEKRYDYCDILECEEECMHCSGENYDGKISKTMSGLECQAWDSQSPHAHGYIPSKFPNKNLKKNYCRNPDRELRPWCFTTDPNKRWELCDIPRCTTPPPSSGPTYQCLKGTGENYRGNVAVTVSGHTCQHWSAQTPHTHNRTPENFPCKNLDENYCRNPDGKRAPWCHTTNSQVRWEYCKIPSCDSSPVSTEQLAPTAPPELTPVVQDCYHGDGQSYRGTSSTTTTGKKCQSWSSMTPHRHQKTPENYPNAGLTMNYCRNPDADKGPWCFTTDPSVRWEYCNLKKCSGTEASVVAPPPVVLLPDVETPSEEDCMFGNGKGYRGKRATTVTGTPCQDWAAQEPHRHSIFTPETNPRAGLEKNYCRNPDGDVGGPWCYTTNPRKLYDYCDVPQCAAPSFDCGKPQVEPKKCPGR
Sequence of Plasminogen (Homo sapiens) (P00747 581-810 limits assumed): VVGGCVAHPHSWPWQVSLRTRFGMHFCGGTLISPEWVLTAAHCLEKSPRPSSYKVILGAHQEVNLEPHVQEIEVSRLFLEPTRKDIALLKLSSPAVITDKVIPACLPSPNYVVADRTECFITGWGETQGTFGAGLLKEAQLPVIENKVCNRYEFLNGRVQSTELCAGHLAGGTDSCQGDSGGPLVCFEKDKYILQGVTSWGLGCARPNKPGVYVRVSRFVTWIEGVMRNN
Another test is filed under the species Homo sapiens. The test can be described thus: Inhibition of human chymotrypsin.
Test [4] concerns the target Tissue-type plasminogen activator (Homo sapiens) (UniProt P00750). The test can be described thus: Inhibition of human tPA.
The target in test [5] is Plasma kallikrein (Homo sapiens) (UniProt P03952). The test can be described thus: Inhibition of human plasma kallikrein. The format is cell-free.
Sequence of Plasma kallikrein (Homo sapiens) (P03952 20-390 limits assumed): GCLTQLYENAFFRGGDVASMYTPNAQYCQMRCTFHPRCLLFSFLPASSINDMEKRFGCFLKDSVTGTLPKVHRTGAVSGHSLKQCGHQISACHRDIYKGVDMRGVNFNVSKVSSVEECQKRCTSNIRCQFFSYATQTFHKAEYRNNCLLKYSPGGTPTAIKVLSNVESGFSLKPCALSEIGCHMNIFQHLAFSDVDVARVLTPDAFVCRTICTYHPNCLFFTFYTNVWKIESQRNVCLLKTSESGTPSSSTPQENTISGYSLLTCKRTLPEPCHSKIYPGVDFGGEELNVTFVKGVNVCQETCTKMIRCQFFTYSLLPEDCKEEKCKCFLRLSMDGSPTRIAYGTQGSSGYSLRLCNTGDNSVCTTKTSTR
Sequence of Plasma kallikrein (Homo sapiens) (P03952 391-638 limits assumed): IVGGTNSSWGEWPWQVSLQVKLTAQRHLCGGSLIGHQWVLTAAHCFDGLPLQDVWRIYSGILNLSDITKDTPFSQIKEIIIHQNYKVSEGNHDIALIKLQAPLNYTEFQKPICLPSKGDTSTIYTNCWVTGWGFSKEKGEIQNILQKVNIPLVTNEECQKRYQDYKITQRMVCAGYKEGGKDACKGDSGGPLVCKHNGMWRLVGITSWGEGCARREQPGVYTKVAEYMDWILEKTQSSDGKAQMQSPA
The target of test [6] is Vitamin K-dependent protein C (Homo sapiens) (UniProt P04070). The experiment in a line: Inhibition of human activated protein C.
Sequence of Vitamin K-dependent protein C (Homo sapiens) (P04070 43-197 limits assumed): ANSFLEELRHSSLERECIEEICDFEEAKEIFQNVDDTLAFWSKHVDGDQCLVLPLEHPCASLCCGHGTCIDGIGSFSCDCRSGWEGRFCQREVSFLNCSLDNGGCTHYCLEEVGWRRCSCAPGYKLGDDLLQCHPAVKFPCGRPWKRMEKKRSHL
Sequence of Vitamin K-dependent protein C (Homo sapiens) (P04070 212-461 limits assumed): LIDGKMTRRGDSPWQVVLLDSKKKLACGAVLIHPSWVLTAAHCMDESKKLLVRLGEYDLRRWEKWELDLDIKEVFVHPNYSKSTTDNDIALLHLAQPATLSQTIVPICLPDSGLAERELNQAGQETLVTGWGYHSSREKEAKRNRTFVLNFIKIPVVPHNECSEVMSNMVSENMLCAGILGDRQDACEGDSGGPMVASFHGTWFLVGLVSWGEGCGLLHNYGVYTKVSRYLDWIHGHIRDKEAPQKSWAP

SMILES strings stand for the structures. The source made the active and inactive calls. The rule behind the calls is not given here.

Sequence of Coagulation factor X (P00742 41-179 limits assumed): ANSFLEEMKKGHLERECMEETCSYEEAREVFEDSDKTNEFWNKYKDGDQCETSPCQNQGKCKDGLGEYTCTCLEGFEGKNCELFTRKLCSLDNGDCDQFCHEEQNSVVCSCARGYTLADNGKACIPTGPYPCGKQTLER
Sequence of Coagulation factor X (P00742 235-488 limits assumed): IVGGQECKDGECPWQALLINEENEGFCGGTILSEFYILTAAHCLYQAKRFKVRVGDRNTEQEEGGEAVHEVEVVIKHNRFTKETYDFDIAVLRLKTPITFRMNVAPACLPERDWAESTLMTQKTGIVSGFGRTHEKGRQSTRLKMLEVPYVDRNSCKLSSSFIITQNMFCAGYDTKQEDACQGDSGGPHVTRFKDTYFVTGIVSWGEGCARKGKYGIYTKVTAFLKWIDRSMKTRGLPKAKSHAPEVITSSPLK
Sequence of Tissue-type plasminogen activator (Homo sapiens) (P00750 36-562 limits assumed): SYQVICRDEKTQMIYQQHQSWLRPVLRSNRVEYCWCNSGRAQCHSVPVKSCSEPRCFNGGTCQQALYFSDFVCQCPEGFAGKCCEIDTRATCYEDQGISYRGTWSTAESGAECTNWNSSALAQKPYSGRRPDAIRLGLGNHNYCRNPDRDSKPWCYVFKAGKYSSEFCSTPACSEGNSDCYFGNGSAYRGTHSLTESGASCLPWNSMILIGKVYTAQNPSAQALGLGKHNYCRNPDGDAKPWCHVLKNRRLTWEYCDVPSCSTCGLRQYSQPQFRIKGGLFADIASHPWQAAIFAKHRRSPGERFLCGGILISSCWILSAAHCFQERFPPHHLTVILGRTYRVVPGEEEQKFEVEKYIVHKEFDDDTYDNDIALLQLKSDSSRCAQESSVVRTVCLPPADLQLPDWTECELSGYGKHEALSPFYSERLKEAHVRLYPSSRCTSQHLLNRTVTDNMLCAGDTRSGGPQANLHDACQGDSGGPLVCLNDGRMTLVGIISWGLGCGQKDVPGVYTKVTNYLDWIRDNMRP

In turn, `COc1ccc(-n2nc(C(F)(F)F)c3c2C(=O)N(c2ccc(C4(CN)CC4)cc2)CC3)cc1` yielded a Ki on Coagulation factor X of 0.57 nM. The outcome (on Trypsin (Homo sapiens); in [1]; in test [2]; in test [3]; in the test filed under Homo sapiens; in test [4]) was inactive. Moreover, the result in [5] and in test [6] was inactive.
`COc1ccc(-n2nc(C(F)(F)F)c3c2C(=O)N(c2ccc(C4(CO)CC4)cc2)CC3)cc1`: at Coagulation factor X, affinity was put at a Ki of 2.4 nM. In addition, the outcome (at Trypsin (Homo sapiens); in test [1]; in [2]; in test [3]; in the test filed under Homo sapiens; in [4]) was inactive. The result in [5] and in test [6] was inactive.
On Coagulation factor X, `COCC1(c2ccc(N3CCc4c(C(F)(F)F)nn(-c5ccc(OC)cc5)c4C3=O)cc2)CC1` had an inhibition constant (Ki) of 1.6 nM. Also, the outcome (at Trypsin (Homo sapiens); in test [1]; in [2]; in [3]; in the test listed under Homo sapiens; in test [4]) was inactive. The outcome in test [5] and in test [6] was inactive.
`COc1ccc(-n2nc(C(F)(F)F)c3c2C(=O)N(c2ccc(C4(CNC5CCCC5)CC4)cc2)CC3)cc1`: the affinity on Coagulation factor X corresponds to a Ki of 0.12 nM. The outcome (on Trypsin (Homo sapiens); in [1]; in [2]; in test [3]; in the test filed under Homo sapiens; in [4]) was inactive. The result in test [5] and in [6] was inactive.
`COc1ccc(-n2nc(C(F)(F)F)c3c2C(=O)N(c2ccc(C4(CN5CCC(O)CC5)CC4)cc2)CC3)cc1`: at Coagulation factor X, affinity was put at a Ki of 0.14 nM. Further, the result (on Trypsin (Homo sapiens); in [1]; in test [2]; in test [3]; in the test filed under Homo sapiens; in test [4]) was inactive. Further, the outcome in test [5] and in [6] was inactive.
Take `COc1ccc(-n2nc(C(F)(F)F)c3c2C(=O)N(c2ccc(C4(C(=O)N5CCCC5)CC4)cc2)CC3)cc1`: on Coagulation factor X, affinity was put at a Ki of 169 nM. For the same molecule, the result (at Trypsin (Homo sapiens); in [1]; in test [2]; in test [3]; in the test filed under Homo sapiens; in test [4]) was inactive. Besides, the outcome in [5] and in [6] was inactive.
`COc1ccc(-n2nc(C(F)(F)F)c3c2C(=O)N(c2ccc(C4(CNC(C)C)CC4)cc2)CC3)cc1` displayed a Ki at Coagulation factor X of 0.042 nM. Moreover, the result (on Trypsin (Homo sapiens); in [1]; in test [2]; in test [3]; in the test listed under Homo sapiens; in test [4]) was inactive. For the same molecule, the result in test [5] and in test [6] was inactive.
On to `COc1ccc(-n2nc(C(F)(F)F)c3c2C(=O)N(c2ccc(C4(C(=O)Nc5nnn[nH]5)CC4)cc2)CC3)cc1`, for which the Ki at Coagulation factor X worked out at 3 nM. For the same molecule, the result (at Trypsin (Homo sapiens); in test [1]; in test [2]; in [3]; in the test filed under Homo sapiens; in test [4]) was inactive. Besides, the result in [5] and in [6] was inactive.
